Measured values as given in patent US20240368131A1, “OXOINDOLINYL AMIDE DERIVATIVES FOR INHIBITING NLRP3 AND USES THEREOF” (VENTUS THERAPEUTICS U.S. INC., priority 2022, published 2024).

Tests used:
Type in all cases: cell-based
human NLRP3 [1] = biological target: T1, human NLRP3 (Homo sapiens, UniProt Q96P20); assay: Human Whole Blood (hWB) NLRP3 Assay (IL-1β MSD); settings: LPS 1 μg/ml 4.5 h, ATP 30 min, class symbols
Experimental: Human whole blood was drawn from healthy volunteers after obtaining written informed consent. Heparin lithium coated tubes were used to collect blood from volunteers. Blood samples were distributed on 96 well plates using 90 μl per well. Priming was performed by adding 5 μl of LPS (O26:B6; Sigma L-2654) at a final concentration of 1 μg/ml for 4.5 hours in a humidified incubator with 37° C., 5% CO2. Thirty minutes prior to NLRP3 activation, 5 μl of a 20× compound solution or vehicle (2% DMSO) was added to each well and plates were incubated on a shaker (450 rpm) in a humidified incubator with 37° C., 5% CO2. Activation was then performed by adding 3.3 μl of a 31× ATP solution per well. At the end of the 30 minutes stimulation, the plates were centrifuged (800 g, 10 min, room temperature) and the plasma from each well was frozen at −80° C. IL-1β levels in the supernatant were analyzed using a mesoscale discovery assay (MSD K151TUK) according to the manufacturers' instructions.
hWB IL-1β Assay: A represents an IC50 value <0.3 μM; B represents an IC50 value ≥0.3 μM and <0.5 μM; C represents an IC50 value ≥0.5 μM and <1.0 μM; D represents an IC50 value >1.0 μM.

human NLRP3 [2] = biological target: T1, human NLRP3; assay: Human PBMC NLRP3 Assay (IL-1β release); design: Human PBMCs (Normal): iXCells Cat #10HU-003; host or cells: human PBMCs (normal donors), LPS-primed, nigericin-stimulated; settings: human PBMCs
Experimental: Reagents: Human PBMCs (Normal): iXCells Cat #10HU-003; RPMI 1640 medium (ATCC modification): ThermoFisher Cat #A1049101 (Complete Media: 10% FBS, 1% Pen/Strep; Assay Media: 1% Pen/Strep; 75 cm^2 cell culture flask: Corning Cat #430641U; 96-well cell culture plates: VWR Cat #10062-900; LPS (E. coli 026:B6): Sigma Cat #L2654, stock 5 mg/mL in PBS; Nigericin sodium salt: Sigma Cat #N7143, stock 5 mg/mL (6.7 mM) in ethanol.
Cryopreserved PBMCs (10×10^6 cells/vial) were rapidly thawed in a 37° C. water bath for 2 min and transferred in 10 mL Complete Media. Cells were then centrifuged at 1200 RPM for 5 min, resuspended in 40 mL of Complete Media, transferred in a 75 cm^2 cell culture flask and incubated overnight at 37° C. with 5% CO2. The next day, PBMCs were centrifuged, resuspended in 30 mL Assay Media (˜3.3×10^5 cells/mL) and distributed at 100 μL/well in a 96-well cell culture plate. 50 μl of Assay Media containing 300 ng/ml of LPS was then added to each well except for the untreated control wells (50 μl Assay Media without LPS). Cells were then primed with LPS for 4 h at 37° C. with 5% CO2. A concentration response curve (CRC) was prepared of 500× test compound in 100% dimethyl sulfoxide (DMSO). The CRC was then diluted 1:25 in Assay Media and then further diluted 1:5 in Assay Media resulting in a final 4× CRC in 0.8% DMSO/Assay Media. 50 μL/well of 4× test compound CRC or vehicle (0.8% DMSO/Assay Media) was then transferred into each well and subsequently incubated for 30 min at 37° C. with 5% CO2. Cells were stimulated by adding 4 μL of 500 μM Nigericin, for 1 h at 37° C. with 5% CO2 Plates were then centrifuged at 1200 RPM for 5 min and 100 μl of the media was transferred to a clean 96-well storage plate and stored at −80° C. until analyzed. Cytokine measurements were performed using the mesoscale platform. Compounds were added 30 minutes before priming the cells with LPS when TNFα was required to be quantified in the cytokine panel to confirm selectivity.
Human PBMC NLRP3 Assay: A represents an IC50 value <0.3 μM; B represents an IC50 value ≥0.3 μM and <0.5 μM; C represents an IC50 value ≥0.5 μM and <1.0 μM; D represents an IC50 value >1.0 μM and <10 μM; E represents an IC50 value >10 μM.

mouse NLRP3 = biological target: T2, mouse NLRP3 (Mus musculus, UniProt Q8R4B8); assay: Mouse Whole Blood (mWB) NLRP3 Assay (IL-1β MSD); settings: CD1 mouse whole blood, LPS 1 μg/mL 5 h, ATP 5 mM; class symbols
T2 construct: Blood was drawn from female CD1 mice (9 to 10 weeks) by cardiac puncture; from tissue; host or cells: whole blood of female CD1 mice, LPS-primed, ATP-stimulated
Experimental: Reagents: The following reagents were used: blood collection tubes (Heparin); U-bottom 96-well tissue culture (Falcon 353077); HBSS for LPS, ATP and compound dilutions (Gibco 24020-117); and LPS, E. coli serotype 026:B6 (Sigma L-2654).
Mouse IL-1b MSD assay: Blood was drawn from female CD1 mice (9 to 10 weeks) by cardiac puncture. Blood was plated (135 μL) per well in 96-well U-bottom plates. 7.5 μL of 20× LPS (20 μg/mL, final concentration of 1 μg/mL) was added and mixed by gentle pipetting, and the mixture was incubated in a TC incubator for five hours. 7.5 μL of 20× compound or vehicle per well was added and mixed by gentle pipetting. Compounds were diluted 1/50 in HBSS to prepare a 20× dilution curve in 2% DMSO. The mixture was incubated for 30 minutes in a TC incubator with shaking (450 rpm). 5 μl of 31× ATP (155 mM, final concentration of 5 mM) was added and mixed by gentle pipetting. The mixture was incubated in a TC incubator for 30 minutes with shaking (450 rpm). The plate was centrifuged for 10 minutes at 800×g and ˜70 μL of plasma was removed. Plasma was frozen if required. Mouse IL-1b was analyzed with IL-1b MSD assay (K152TUK). […]
mWB IL-1β Assay: A represents an IC50 value <0.3 μM; B represents an IC50 value ≥0.3 μM and <0.5 μM; C represents an IC50 value ≥0.5 μM and <1.0 μM; D represents an IC50 value ≥1.0 μM.

[3] = LPS priming 4 h, nigericin stimulation 1 h, class symbols

T2 sequence (Q8R4B8 whole entry): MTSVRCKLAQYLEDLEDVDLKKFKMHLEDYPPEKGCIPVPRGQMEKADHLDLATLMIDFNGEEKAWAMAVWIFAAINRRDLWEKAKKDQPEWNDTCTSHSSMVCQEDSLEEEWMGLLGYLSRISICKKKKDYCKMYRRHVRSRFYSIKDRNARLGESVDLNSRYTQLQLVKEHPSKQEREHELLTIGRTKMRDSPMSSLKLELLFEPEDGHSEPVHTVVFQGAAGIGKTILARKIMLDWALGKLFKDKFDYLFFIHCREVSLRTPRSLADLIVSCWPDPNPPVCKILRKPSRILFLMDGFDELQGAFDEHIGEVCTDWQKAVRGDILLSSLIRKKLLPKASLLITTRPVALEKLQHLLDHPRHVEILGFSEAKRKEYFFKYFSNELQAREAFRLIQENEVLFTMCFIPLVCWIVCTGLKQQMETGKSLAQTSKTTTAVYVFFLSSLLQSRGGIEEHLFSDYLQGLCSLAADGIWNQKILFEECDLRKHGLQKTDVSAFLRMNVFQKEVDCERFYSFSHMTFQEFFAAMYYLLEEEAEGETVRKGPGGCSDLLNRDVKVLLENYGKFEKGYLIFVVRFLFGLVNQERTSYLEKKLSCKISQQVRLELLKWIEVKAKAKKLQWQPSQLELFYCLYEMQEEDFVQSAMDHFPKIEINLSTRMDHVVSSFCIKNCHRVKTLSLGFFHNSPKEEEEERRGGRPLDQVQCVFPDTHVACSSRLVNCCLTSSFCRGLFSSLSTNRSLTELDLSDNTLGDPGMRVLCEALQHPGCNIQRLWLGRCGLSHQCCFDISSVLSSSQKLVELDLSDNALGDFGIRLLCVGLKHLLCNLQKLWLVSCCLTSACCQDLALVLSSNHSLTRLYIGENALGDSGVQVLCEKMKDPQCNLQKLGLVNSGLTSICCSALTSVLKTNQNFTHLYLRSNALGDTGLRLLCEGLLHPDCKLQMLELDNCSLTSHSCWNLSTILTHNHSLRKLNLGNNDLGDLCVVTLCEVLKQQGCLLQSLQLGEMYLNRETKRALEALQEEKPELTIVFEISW
T1 sequence (Q96P20 whole entry): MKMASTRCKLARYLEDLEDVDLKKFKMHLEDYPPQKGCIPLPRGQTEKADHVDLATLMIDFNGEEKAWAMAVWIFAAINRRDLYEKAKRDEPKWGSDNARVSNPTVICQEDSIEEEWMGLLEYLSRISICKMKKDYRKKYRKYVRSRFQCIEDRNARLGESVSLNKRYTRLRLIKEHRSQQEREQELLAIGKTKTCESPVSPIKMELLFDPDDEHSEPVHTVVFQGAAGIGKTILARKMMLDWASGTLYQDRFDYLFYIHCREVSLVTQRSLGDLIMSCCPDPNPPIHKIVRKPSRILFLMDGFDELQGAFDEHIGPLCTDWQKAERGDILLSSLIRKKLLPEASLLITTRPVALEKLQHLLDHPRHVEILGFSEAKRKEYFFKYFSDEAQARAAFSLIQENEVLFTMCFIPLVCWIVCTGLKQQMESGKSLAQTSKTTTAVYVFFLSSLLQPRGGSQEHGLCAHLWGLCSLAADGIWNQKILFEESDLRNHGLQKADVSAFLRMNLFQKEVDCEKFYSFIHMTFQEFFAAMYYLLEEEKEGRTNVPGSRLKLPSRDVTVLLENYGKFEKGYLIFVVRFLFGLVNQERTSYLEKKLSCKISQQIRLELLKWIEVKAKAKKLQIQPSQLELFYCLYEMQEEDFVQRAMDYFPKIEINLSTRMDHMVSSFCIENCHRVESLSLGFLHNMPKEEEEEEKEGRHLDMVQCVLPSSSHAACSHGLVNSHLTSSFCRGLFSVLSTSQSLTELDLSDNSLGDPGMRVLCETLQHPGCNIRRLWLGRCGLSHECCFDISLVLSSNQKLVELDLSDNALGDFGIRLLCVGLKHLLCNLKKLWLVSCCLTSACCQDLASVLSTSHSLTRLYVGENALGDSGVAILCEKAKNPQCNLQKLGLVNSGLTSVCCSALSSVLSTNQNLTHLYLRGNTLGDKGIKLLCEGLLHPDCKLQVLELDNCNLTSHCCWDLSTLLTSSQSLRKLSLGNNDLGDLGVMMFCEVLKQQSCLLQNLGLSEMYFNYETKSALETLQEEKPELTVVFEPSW

| IC50 (human NLRP3 [1]) | IC50 (human NLRP3 [2]; [3]) | IC50 (mouse NLRP3) | IC50 (human NLRP3 [2]; LPS priming, nigericin stimulation, numeric values of Tables C1-C4) | Structure (SMILES) |
| --- | --- | --- | --- | --- |
| 500 to 1000 nM | < 300 nM | – | – | CC1(C)C(=O)N(CC(=O)NC2(CCC(=O)O)CCOC2)c2ccc(Br)cc21 (racemic) [Rac-3, 3-(3-(2-(5-bromo-3,3-dimethyl-2-oxoindolin-1-yl)acetamido)tetrahydrofuran-3-yl)propanoic acid] |
| 500 to 1000 nM | < 300 nM | – | – | C[C@@H](CC(=O)O)[C@@H](C)NC(=O)CN1C(=O)C(C)(C)c2c1ccc(C1CC1)c2F (single isomer, unassigned) [Compound 58A*] |
| 500 to 1000 nM | < 300 nM | < 300 nM | – | C[C@@H](CC(=O)O)[C@H](NC(=O)CN1C(=O)C(C)(C)c2c1ccc(C1CC1)c2F)C1CC1 (single isomer, unassigned) [Compound 60A*] |
| > 1000 nM | – | – | – | CC1(C)C(=O)N(CC(=O)NCCCC(=O)O)c2ccc(Cl)cc21 [Compound 4, 4-(2-(5-chloro-3,3-dimethyl-2-oxoindolin-1-yl)acetamido)butanoic acid] |
| > 1000 nM | – | < 300 nM | – | CC1(C)C(=O)N(CC(=O)N[C@@H]2CCCN(c3nnn[nH]3)C2)c2ccc(Br)cc21 [Compound 11A, (R)-N-(1-(1H-tetrazol-5-yl)piperidin-3-yl)-2-(5-bromo-3,3-dimethyl-2-oxoindolin-1-yl)acetamide] |
| < 300 nM | < 300 nM | – | – | CC1(C)C(=O)N(CC(=O)NCCCC(=O)O)c2ccc(Br)c(F)c21 [Compound 21, 4-(2-(5-bromo-4-fluoro-3,3-dimethyl-2-oxoindolin-1-yl)acetamido)butanoic acid] |
| < 300 nM | < 300 nM | – | – | CC1(C)C(=O)N(CC(=O)NCCCC(=O)O)c2ccc(I)cc21 [Compound 22, 4-(2-(5-iodo-3,3-dimethyl-2-oxoindolin-1-yl)acetamido)butanoic acid] |
| – | < 300 nM | < 300 nM | 20 nM | CC1(C)C(=O)N(CC(=O)NCCCC(=O)O)c2c(F)cc(Br)cc21 [Compound 24, 4-(2-(5-bromo-7-fluoro-3,3-dimethyl-2-oxoindolin-1-yl)acetamido)butanoic acid] |
| – | – | 500 to 1000 nM | – | C[C@H]1C[C@@H](NC(=O)CN2C(=O)C(C)(C)c3cc(Br)cc(O)c32)CN(c2nnn[nH]2)C1 [Compound 26, 2-(5-bromo-7-hydroxy-3,3-dimethyl-2-oxoindolin-1-yl)-N-((3R,5S)-5-methyl-1-(1H-tetrazol-5-yl)piperidin-3-yl)acetamide] |
| > 1000 nM | < 300 nM | – | – | CC1(C)C(=O)N(CC(=O)NCCCC(=O)O)c2c(O)cc(I)cc21 [Compound 28, 4-(2-(7-hydroxy-5-iodo-3,3-dimethyl-2-oxoindolin-1-yl)acetamido)butanoic acid] |
| > 1000 nM | – | – | – | CC1(C)C(=O)N(CC(=O)NCCCc2nnn[nH]2)c2c(O)cc(C3CC3)cc21 [Compound 29, N-(3-(1H-tetrazol-5-yl)propyl)-2-(5-cyclopropyl-7-hydroxy-3,3-dimethyl-2-oxoindolin-1-yl)acetamide] |
| > 1000 nM | < 300 nM | – | – | CN(CCCC(=O)O)C(=O)CN1C(=O)C(C)(C)c2cc(Br)cc(O)c21 [Compound 30, 4-(2-(5-bromo-7-hydroxy-3,3-dimethyl-2-oxoindolin-1-yl)-N-methylacetamido)butanoic acid] |
| 500 to 1000 nM | < 300 nM | – | – | CC(C)(CCC(=O)O)NC(=O)CN1C(=O)C(C)(C)c2cc(Br)cc(O)c21 [Compound 31, 4-(2-(5-bromo-7-hydroxy-3,3-dimethyl-2-oxoindolin-1-yl)acetamido)-4-methylpentanoic acid] |
| > 1000 nM | – | – | – | CC(C)(CCc1nnn[nH]1)NC(=O)CN1C(=O)C(C)(C)c2cc(Br)cc(O)c21 [Compound 32, 2-(5-bromo-7-hydroxy-3,3-dimethyl-2-oxoindolin-1-yl)-N-(2-methyl-4-(1H-tetrazol-5-yl)butan-2-yl)acetamide] |
| > 1000 nM | < 300 nM | – | – | CC1(C)C(=O)N(CC(=O)NCCCc2nnn[nH]2)c2c(O)cc(Br)cc21 [Compound 33, N-(3-(1H-tetrazol-5-yl)propyl)-2-(5-bromo-7-hydroxy-3,3-dimethyl-2-oxoindolin-1-yl)acetamide] |
| > 1000 nM | < 300 nM | – | – | CC1(C)C(=O)N(CC(=O)NCC2(CC(=O)O)CC2)c2c(O)cc(Br)cc21 [Compound 35, 2-(1-((2-(5-bromo-7-hydroxy-3,3-dimethyl-2-oxoindolin-1-yl)acetamido)methyl)cyclopropyl)acetic acid] |
| > 1000 nM | < 300 nM | – | – | C[C@@H](CCC(=O)O)NC(=O)CN1C(=O)C(C)(C)c2cc(Br)cc(O)c21 [Compound 41B, (S)-4-(2-(5-bromo-7-hydroxy-3,3-dimethyl-2-oxoindolin-1-yl)acetamido)pentanoic acid] |
| 300 to 500 nM | – | – | – | CC1(C)C(=O)N(CC(=O)NCCCC(=O)O)c2c(O)cc(Cl)cc21 [Compound 47, 4-(2-(5-chloro-7-hydroxy-3,3-dimethyl-2-oxoindolin-1-yl)acetamido)butanoic acid] |
| 300 to 500 nM | – | < 300 nM | – | C[C@@H](CNC(=O)CN1C(=O)C(C)(C)c2c(F)c(C3CC3)cc(F)c21)CC(=O)O [Compound 61A, (R)-4-(2-(5-cyclopropyl-4,7-difluoro-3,3-dimethyl-2-oxoindolin-1-yl)acetamido)-3-methylbutanoic acid] |
| 500 to 1000 nM | – | – | – | C[C@H](CNC(=O)CN1C(=O)C(C)(C)c2c(F)c(C3CC3)cc(F)c21)CC(=O)O [Compound 61B, (S)-4-(2-(5-cyclopropyl-4,7-difluoro-3,3-dimethyl-2-oxoindolin-1-yl)acetamido)-3-methylbutanoic acid] |
| 300 to 500 nM | – | < 300 nM | – | CC1(C)C(=O)N(CC(=O)NC[C@H](F)CC(=O)O)c2c(F)cc(C3CC3)c(F)c21 [Compound 62A, (R)-4-(2-(5-cyclopropyl-4,7-difluoro-3,3-dimethyl-2-oxoindolin-1-yl)acetamido)-3-fluorobutanoic acid] |
